Entries after “also recorded” stand apart in the source; their conditions may differ. Where two headings read alike, the source gives them in different places.
Tests used:
Type in all cases: cell-based
P. gingivalis = test: Inhibition of growth of oral bacteria, P. gingivalis
Procedure: (§1) The concentration of 500 μM of mogroside II, III, IV, V, VI, 11-o-Mogroside V, and Siamenoside I, siraitiflavandiol, rhamnocitrin-3-O-rhamnoside, and kaempferitrin were used to test the inhibition activity against the growth of oral bacteria, A. actinomycetemcomitans and P. gingivalis.

C. albicans = test: In vitro inhibition of growth of C. albicans
Procedure: Mogroside II, III, IV, V, VI, 11-o-Mogroside V, and Siamenoside I were also evaluated in vitro for inhibition of growth of C. albicans.

A. actinomycetemcomitans = test: Inhibition of growth of oral bacteria, A. actinomycetemcomitans; details: 500 μM
Procedure: as §1

Row | Compound | antimicrobial activity against P. gingivalis (growth inhibition) (P. gingivalis; 500 μM) | antimicrobial activity against C. albicans (growth inhibition) (C. albicans; in vitro) | antimicrobial activity against A. actinomycetemcomitans (growth inhibition) (A. actinomycetemcomitans) | antimicrobial activity against P. gingivalis (growth inhibition) (P. gingivalis) | antimicrobial activity against C. albicans (growth inhibition) (C. albicans)
1 | C[C@H](CC[C@@H](O[C@@H]1O[C@H](CO[C@@H]2O[C@H](CO)[C@@H](O)[C@H](O)[C@H]2O)[C@@H](O)[C@H](O)[C@H]1O[C@@H]1O[C@H](CO)[C@@H](O)[C@H](O)[C@H]1O)C(C)(C)O)[C@H]1CC[C@@]2(C)[C@@H]3CC=C4[C@@H](CC[C@H](O[C@@H]5O[C@H](CO[C@@H]6O[C@H](CO)[C@@H](O)[C@H](O)[C@H]6O)[C@@H](O)[C@H](O)[C@H]5O)C4(C)C)[C@]3(C)C(=O)C[C@]12C [11-o-Mogroside V] | higher antimicrobial activity than mogroside III | higher antimicrobial activity than mogroside VI and Siamenoside I | higher antimicrobial activity than mogroside II and III |  | 
2 | C[C@H](CC[C@@H](O[C@@H]1O[C@H](CO[C@@H]2O[C@H](CO)[C@@H](O)[C@H](O)[C@H]2O)[C@@H](O)[C@H](O)[C@H]1O[C@@H]1O[C@H](CO)[C@@H](O)[C@H](O)[C@H]1O)C(C)(C)O)[C@H]1CC[C@@]2(C)[C@@H]3CC=C4[C@@H](CC[C@H](O[C@@H]5O[C@H](CO)[C@@H](O)[C@H](O)[C@H]5O)C4(C)C)[C@]3(C)[C@H](O)C[C@]12C [Siamenoside I] |  | mogroside II, III, IV, V, and 11-o-Mogroside V showed higher antimicrobial activity than mogroside VI and Siamenoside I |  |  | 
3 | C[C@@H]1O[C@@H](Oc2cc(O)c3c(=O)c(O[C@@H]4O[C@@H](C)[C@H](O)[C@@H](O)[C@H]4O)c(-c4ccc(O)cc4)oc3c2)[C@H](O)[C@H](O)[C@H]1O [kaempferitrin] | highest activity | good activity |  |  | 
4 | C[C@H](CC[C@@H](O[C@@H]1O[C@H](CO[C@@H]2O[C@H](CO)[C@@H](O)[C@H](O)[C@H]2O)[C@@H](O)[C@H](O)[C@H]1O)C(C)(C)O)[C@H]1CC[C@@]2(C)[C@@H]3CC=C4[C@@H](CC[C@H](O[C@@H]5O[C@H](CO)[C@@H](O)[C@H](O)[C@H]5O)C4(C)C)[C@]3(C)[C@H](O)C[C@]12C [mogroside III] | mogroside II, IV, V, VI, 11-o-Mogroside V showed higher antimicrobial activity than mogroside III | higher antimicrobial activity than mogroside VI and Siamenoside I | mogroside IV, V, VI, 11-o-Mogroside V showed higher antimicrobial activity than mogroside II and III |  | 
5 | C[C@H](CC[C@@H](O[C@@H]1O[C@H](CO)[C@@H](O)[C@H](O)[C@H]1O[C@@H]1O[C@H](CO)[C@@H](O)[C@H](O)[C@H]1O)C(C)(C)O)[C@H]1CC[C@@]2(C)[C@H]3CC=C4[C@@H](CC[C@H](O[C@@H]5O[C@H](CO[C@@H]6O[C@H](CO)[C@@H](O)[C@H](O)[C@H]6O)[C@@H](O)[C@H](O)[C@H]5O)C4(C)C)[C@]3(C)[C@H](O)C[C@]12C [mogroside IV] | higher antimicrobial activity than mogroside III | higher antimicrobial activity than mogroside VI and Siamenoside I | higher antimicrobial activity than mogroside II and III |  | 
6 | C[C@H](CC[C@@H](O[C@@H]1O[C@H](CO[C@@H]2O[C@H](CO)[C@@H](O)[C@H](O)[C@H]2O)[C@@H](O)[C@H](O)[C@H]1O[C@@H]1O[C@H](CO)[C@@H](O)[C@H](O)[C@H]1O)C(C)(C)O)[C@H]1CC[C@@]2(C)[C@@H]3CC=C4[C@@H](CC[C@H](O[C@@H]5O[C@H](CO[C@@H]6O[C@H](CO)[C@@H](O)[C@H](O)[C@H]6O)[C@@H](O)[C@H](O)[C@H]5O)C4(C)C)[C@]3(C)[C@H](O)C[C@]12C [mogroside V, Mogroside V] | higher antimicrobial activity than mogroside III | higher antimicrobial activity than mogroside VI and Siamenoside I | higher antimicrobial activity than mogroside II and III; also recorded: highest activity |  | 
7 | C[C@H](CC[C@@H](O[C@@H]1O[C@H](CO[C@@H]2O[C@H](CO)[C@@H](O)[C@H](O)[C@H]2O)[C@@H](O)[C@H](O)[C@H]1O[C@@H]1O[C@H](CO)[C@@H](O)[C@H](O)[C@H]1O)C(C)(C)O)[C@H]1CC[C@@]2(C)[C@H]3CC=C4[C@H](CC[C@H](O[C@@H]5O[C@H](CO[C@@H]6O[C@H](CO)[C@@H](O)[C@H](O)[C@H]6O)[C@@H](O)[C@H](O)[C@H]5O[C@@H]5O[C@H](CO)[C@@H](O)[C@H](O)[C@H]5O)C4(C)C)[C@]3(C)[C@H](O)C[C@]12C [mogroside VI] | higher antimicrobial activity than mogroside III | mogroside II, III, IV, V, and 11-o-Mogroside V showed higher antimicrobial activity than mogroside VI and Siamenoside I | higher antimicrobial activity than mogroside II and III |  | 
8 | mogroside II | higher antimicrobial activity than mogroside III | higher antimicrobial activity than mogroside VI and Siamenoside I | mogroside IV, V, VI, 11-o-Mogroside V showed higher antimicrobial activity than mogroside II and III |  | 
9 | rhamnocitrin-3-O-rhamnoside |  |  |  | highest activity | good activity
10 | siraitiflavandiol | highest activity | good activity |  |  | 

— patent US20120141386A1, “Application of Antimicrobial and Glycemic Control Activities of Lo Han Kuo Fruit (Siraitia grosvenorii)” (ORACEUTICALS, INC., priority 2010, published 2012)
